Where a name gives a salt, the structure may show the parent alone. A value given as a limit tells only on which side of the number the result lay.

The target of one experiment is T1, human CGT (ceramide galactosyltransferase), CHO/CGT lysate (Homo sapiens, UniProt Q16880).
T1 construct: Full-length human CGT cDNA was cloned into the BamH1/Xho1 site of pcDNA3.1 (+); expressed in transfected cells; host or cells: Chinese hamster ovary (CHO) cells; lysate prepared with M-PER
T1 sequence (Q16880 21-541): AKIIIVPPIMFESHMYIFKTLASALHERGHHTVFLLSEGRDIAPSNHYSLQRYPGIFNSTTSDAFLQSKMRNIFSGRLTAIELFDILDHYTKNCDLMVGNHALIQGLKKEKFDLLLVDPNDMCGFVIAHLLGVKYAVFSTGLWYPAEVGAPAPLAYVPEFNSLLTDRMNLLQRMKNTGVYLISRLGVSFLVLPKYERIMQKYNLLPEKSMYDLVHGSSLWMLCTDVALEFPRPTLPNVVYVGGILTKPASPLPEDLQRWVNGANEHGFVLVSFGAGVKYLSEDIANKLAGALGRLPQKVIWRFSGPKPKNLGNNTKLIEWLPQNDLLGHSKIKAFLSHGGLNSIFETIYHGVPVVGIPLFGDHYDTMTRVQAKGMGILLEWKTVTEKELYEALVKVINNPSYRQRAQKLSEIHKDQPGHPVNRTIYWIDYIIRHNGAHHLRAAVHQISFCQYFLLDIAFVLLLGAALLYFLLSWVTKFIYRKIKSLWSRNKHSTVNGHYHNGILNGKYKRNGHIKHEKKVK
Description: CGT enzyme assay, RapidFire/MS/MS readout (Table 1 ranges with one asterisk *). It counts as biochemical. Conditions: RapidFire method (range with one asterisk *). The method, boiled down:
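Lysate (4 μg) of CHO cells transfected with full-length human CGT incubated 1 h at 37 °C with compound (0.001–50 μM) in pH 7.2 HEPES buffer with 10 μM C6-NBD-dihydro-ceramide, 17.5 μM UDP-galactose, Mg2+/Mn2+, CHAPS, BSA, 0.5% DMSO; ** set also contained 0.01% Tween 80. Product quantified by RapidFire/MS/MS, normalized to internal standard; IC50 from sigmoidal variable-slope fits.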
`NC1CC2CCC(C1)N2C(=O)[C@H](NC(=O)[C@H](O)c1ccc2cc(OC3CCCC3)ccc2c1)C(F)(F)c1ccc(-c2ccc(Cl)cc2)cc1` (stereo partly drawn) [Compound 136-4, (2R)—N-((2S)-3-(3-amino-8-azabicyclo[3.2.1]octan-8-yl)-1-(4′-chloro-[1,1′-biphenyl]-4-yl)-1,1-difluoro-3-oxopropan-2-yl)-2-(6-(cyclopentyloxy)naphthalen-2-yl)-2-hydroxyacetamide trifluoroacetate] gave an IC50 of 30 to 100 µM. The same measure, in the same setting: for `O=C([C@@H](NS(=O)(=O)c1ccc2cc(OC3CCCC3)ccc2c1)C(F)(F)c1ccc(-c2ccc(Cl)cc2)cc1)N1CCNCC1` [Compound 137-1, (R)—N-(1-(4′-chloro-[1,1′-biphenyl]-4-yl)-1,1-difluoro-3-oxo-3-(piperazin-1-yl)propan-2-yl)-6-(cyclopentyloxy)naphthalene-2-sulfonamide trifluoroacetate] the value was 1 to 10 µM; for `O=C([C@H](NS(=O)(=O)c1ccc2cc(OC3CCCC3)ccc2c1)C(F)(F)c1ccc(-c2ccc(Cl)cc2)cc1)N1CCNCC1` [Compound 137-2, (S)—N-(1-(4′-chloro-[1,1′-biphenyl]-4-yl)-1,1-difluoro-3-oxo-3-(piperazin-1-yl)propan-2-yl)-6-(cyclopentyloxy)naphthalene-2-sulfonamide trifluoroacetate], 10 to 30 µM; for `NCC1CCN(C(=O)[C@@H](NS(=O)(=O)c2ccc3cc(OC4CCCC4)ccc3c2)C(F)(F)c2ccc(-c3ccc(Cl)cc3)cc2)CC1` [Compound 138-1, (R)—N-(3-(4-(aminomethyl)piperidin-1-yl)-1-(4′-chloro-[1,1′-biphenyl]-4-yl)-1,1-difluoro-3-oxopropan-2-yl)-6-(cyclopentyloxy)naphthalene-2-sulfonamide trifluoroacetate], under 1 µM. `NCC1CCN(C(=O)[C@H](NS(=O)(=O)c2ccc3cc(OC4CCCC4)ccc3c2)C(F)(F)c2ccc(-c3ccc(Cl)cc3)cc2)CC1` [Compound 138-2, (S)—N-(3-(4-(aminomethyl)piperidin-1-yl)-1-(4′-chloro-[1,1′-biphenyl]-4-yl)-1,1-difluoro-3-oxopropan-2-yl)-6-(cyclopentyloxy)naphthalene-2-sulfonamide trifluoroacetate] had a concentration for half-maximal inhibition (IC50) of 1 to 10 µM. On the same count and under the same terms, the result for `N[C@@H]1CCN(C(=O)[C@@H](NS(=O)(=O)c2ccc3cc(OC4CCCC4)ccc3c2)C(F)(F)c2ccc(Br)cc2)C1` [Compound 139-1, N—((R)-3-((R)-3-aminopyrrolidin-1-yl)-1-(4-bromophenyl)-1,1-difluoro-3-oxopropan-2-yl)-6-(cyclopentyloxy)naphthalene-2-sulfonamide] reads under 1 µM. Still for that read-out and setting: for `N[C@@H]1CCN(C(=O)[C@H](NS(=O)(=O)c2ccc3cc(OC4CCCC4)ccc3c2)C(F)(F)c2ccc(Br)cc2)C1` [Compound 139-2, N—((S)-3-((R)-3-aminopyrrolidin-1l-yl)-1-(4-bromophenyl)-1,1-difluoro-3-oxopropan-2-yl)-6-(cyclopentyloxy)naphthalene-2-sulfonamide] the value was 1 to 10 µM; for `N[C@H]1CCN(C(=O)[C@@H](NS(=O)(=O)c2ccc3cc(OC4CCCC4)ccc3c2)C(F)(F)c2ccc(Br)cc2)C1` [Compound 140-1, N—((R)-3-((S)-3-aminopyrrolidin-1-yl)-1-(4-bromophenyl)-1,1-difluoro-3-oxopropan-2-yl)-6-(cyclopentyloxy)naphthalene-2-sulfonamide], 1 to 10 µM; for `N[C@H]1CCN(C(=O)[C@H](NS(=O)(=O)c2ccc3cc(OC4CCCC4)ccc3c2)C(F)(F)c2ccc(Br)cc2)C1` [Compound 140-2, N—((S)-3-((S)-3-aminopyrrolidin-1-yl)-1-(4-bromophenyl)-1,1-difluoro-3-oxopropan-2-yl)-6-(cyclopentyloxy)naphthalene-2-sulfonamide], 10 to 30 µM. The compound `NC1CCN(C(=O)[C@@H](NC(=O)[C@H](O)c2ccc(OCC3CCCCC3)cc2)C(F)(F)c2ccc(-c3ccc(Cl)cc3)cc2)CC1` [Compound 141-1, (R)—N—((R)-3-(4-aminopiperidin-1-yl)-1-(4′-chloro-[1,1′-biphenyl]-4-yl)-1,1-difluoro-3-oxopropan-2-yl)-2-(4-(cyclohexylmethoxy)phenyl)-2-hydroxyacetamide trifluoroacetate] yielded an IC50 of 1 to 10 µM. The same measure, in the same setting: for `NC1CCN(C(=O)[C@H](NC(=O)[C@@H](O)c2ccc(OCC3CCCCC3)cc2)C(F)(F)c2ccc(-c3ccc(Cl)cc3)cc2)CC1` [Compound 141-2, (S)—N—((S)-3-(4-aminopiperidin-1-yl)-1-(4′-chloro-[1,1′-biphenyl]-4-yl)-1,1-difluoro-3-oxopropan-2-yl)-2-(4-(cyclohexylmethoxy)phenyl)-2-hydroxyacetamide trifluoroacetate] the value was 10 to 30 µM; for `NC1CCN(C(=O)[C@@H](NC(=O)[C@@H](O)c2ccc(OCC3CCCCC3)cc2)C(F)(F)c2ccc(-c3ccc(Cl)cc3)cc2)CC1` [Compound 141-3, (S)—N—((R)-3-(4-aminopiperidin-1-yl)-1-(4′-chloro-[1,1′-biphenyl]-4-yl)-1,1-difluoro-3-oxopropan-2-yl)-2-(4-(cyclohexylmethoxy)phenyl)-2-hydroxyacetamide trifluoroacetate], 1 to 10 µM; for `NC1CCN(C(=O)[C@H](NC(=O)[C@H](O)c2ccc(OCC3CCCCC3)cc2)C(F)(F)c2ccc(-c3ccc(Cl)cc3)cc2)CC1` [Compound 141-4, (R)—N—((S)-3-(4-aminopiperidin-1-yl)-1-(4′-chloro-[1,1′-biphenyl]-4-yl)-1,1-difluoro-3-oxopropan-2-yl)-2-(4-(cyclohexylmethoxy)phenyl)-2-hydroxyacetamide trifluoroacetate], 30 to 100 µM.

A further experiment concerns the target T1, human CGT (ceramide galactosyltransferase), CHO/CGT lysate. Description: CGT enzyme assay, RapidFire/MS/MS readout with 0.01% Tween added (Table 1 ranges with two asterisks **). Conditions: CGT enzyme assay, RapidFire/MS/MS method with 0.01% Tween added (range with two asterisks **). It counts as biochemical. Here is the method:
Full-length human CGT cDNA was cloned into the BamH1/Xho1 site of pcDNA3.1 (+) mammalian expression vector (V90-20, Invitrogen, Carlsbad, Calif.) and the plasmid was transfected into Chinese hamster ovary (CHO) cells. Lysate was prepared using M-PER (Mammalian Protein Extraction Reagent, ThermoFisher Scientific, Grand Island, N.Y.) in the presence of a protease inhibitor cocktail (P8340, Sigma, Saint Louis, Mo.). Each 100 mm dish (100% confluent, approximately 1×10^7 cells) was lysed with 250 μL of M-PER containing protease inhibitors. Protein concentration was determined using a Pierce BCA protein assay kit (ThermoFisher Scientific). Four micrograms of CHO/CGT lysate was incubated with various concentrations of a compound (0.001 μM-50 μM) in 10 mM HEPES (pH 7.2) containing 35 μM dioleoylphosphatidylcholine, 5 mM MgCl2, 5 mM MnCl2, 1% BSA, 15 mM KCl, 1 mM EGTA, 8 mM CHAPS, 10 μM C6-NBD-dihydro-ceramide and 17.5 μM UDP-galactose in a final reaction volume of 20 μL at 37° C. for 1 hour. The final concentration of DMSO was 0.5% in both compound-treated and mock-treated samples. Tween 80 (0.01%) was optionally added to the reaction mixture to help solubilize the compounds. Each individual reaction was diluted with 80 μL of methanol:acetronitrile (1:3) containing 5 μM N-docdecanoyl-NBD-galactosylceramide (internal standard) to stop the reaction. 200 μL H2O:acetonitile (1:1) was added to precipitate the protein. After sufficient mixing, the plates were centrifuged at 2469 g for 38 minutes, 200 μL of supernatant was transferred to a LC/MS 96-deep well plate and a second spin was performed at 2469 g for 10 minutes. The final supernatant was injected in triplicate for RapidFire/MS/MS analysis.
Quantitative Analysis Using the RapidFire/MS/MS Method:
The quantitative analysis of C6-NBD-dihydro-ceramide and C6-NBD-dihydro-galactosylceramide was performed on a Rapid Fire 360 high-throughput mass spectrometry system (Agilent Technologies, Palo Alto, Calif.) coupled with a API4000^+ triple quadrupole mass spectrometer (Applied Biosystems, Concord, Ontario, Canada). RapidFire software packages, including RapidFire Control panel, RapidFire UI and RapidFire Integrator (Agilent Technologies), were used to control the RapidFire instrument and to process data. Analyst 1.6.2 software packages (Applied Biosystems) were used to control the MS system and acquire MS data. […] of sample was loaded on a micro-scale C4 solid-phase extraction (SPE) cartridge (Agilent Technologies) and salts were removed using water supplemented with 0.1% formic acid at the flow rate of 1.5 mL/min for 3 sec. C6-NBD-dihydro-ceramide and C6-NBD-dihydro-galactosylceramide were co-eluted into the mass spectrometer using acetonitrile containing 0.1% formic acid at the flow rate of 1.0 mL/min for 3 sec. The total cycle time of one injection was 8 secs. The MS/MS detection was performed in ESI negative mode. The mass transition of C6-NBD-dihydro-galactosylceramide was m/z 752.6→678.6 using a −40 V collision energy, the mass transition of C6-NBD-dihydro-ceramide was m/z 590.6→115.8 using a −40 V collision energy and the mass transition of N-docdecanoyl-NBD-galactosylceramide was m/z 820.9→746.3 using a −45 V collision energy.
The C6-NBD-dihydro-galactosylceramide reading was normalized first by dividing the peak area of C6-NBD-dihydro-galactosylceramide by the peak area of the internal standard, N-docdecanoyl-NBD-galactosylceramide. IC50 values (see Table 1, where data ranges with one asterix (*) correspond to analysis using the RapidFire/MS/MS method, and data ranges with two asterixes (**) correspond to analysis using the RapidFire/MS/MS method with 0.01% Tween added) were generated from sigmoidal dose-response curves (variable slope) with GraphPad Prism software (GraphPad Software, Inc., San Diego, Calif.) using the normalized peak areas of C6-NBD-dihydro-galactosylceramide or the percent inhibition of C6-NBD-dihydro-galactosylceramide accumulation relative to DMSO control. […]
For `COc1cc(C(F)(F)[C@H](NS(=O)(=O)c2ccc(OCC3CCCCC3)cc2)C(=O)N2C3CCC2CC(N)C3)ccc1-c1ccc(Cl)cc1` (stereo partly drawn) [Compound 142-1, N-((2R)-3-(3-amino-8-azabicyclo[3.2.1]octan-8-yl)-1-(4′-chloro-2-methoxy-[1,1′-biphenyl]-4-yl)-1,1-difluoro-3-oxopropan-2-yl)-4-(cyclohexylmethoxy) benzenesulfonamide trifluoroacetate], the half-maximal inhibitory concentration (IC50) is under 1 µM.

For the origin of these results see US20190322676A1, “CERAMIDE GALACTOSYLTRANSFERASE INHIBITORS FOR THE TREATMENT OF DISEASE” (BioMarin Pharmaceutical Inc., priority 2016, published 2019).
